In patent US6444695B1, “Inhibition of thrombin-induced platelet aggregation by creatine kinase inhibitors” (The Regents of the University of California, priority 2000, dated 2002):
“Also recorded” adds a separate entry of the source.

Key:
[1] = tested on: human umbilical vein endothelial cells (HUVEC); experiment: Intracellular calcium assay (Fluo-3, FLIPR) in HUVEC after thrombin; format: cell-based
Procedure: To assay for intracellular calcium levels, cell media was decanted and replaced with Fluo-3 AM (Molecular Probes) in […] of loading buffer with 1% Fetal Calf Serum (FCS) for 1 hour. Cells were rinsed with loading buffer and the 96-well plate was placed into a Fluorometric Imaging Plate Reader (FLIPR, Molecular Devices, Sunnyvale, Calif.). The relative intracellular calcium levels were monitored at […] for 210 seconds in 4 to 8 identically treated wells. To monitor calcium release from intracellular stores thrombin was delivered in buffer containing 10 mM EDTA. Various phospholipase C inhibitors were applied as well.

[2] = tested on: human umbilical vein endothelial cells (HUVEC); experiment: Thrombin-induced cell rounding / contraction of HUVEC; format: cell-based; settings: for % of cells round after thrombin: thrombin 10 pM 20 minutes (control 2%, thrombin alone 80%); for effect on thrombin-induced cell rounding / contraction: thrombin 10 pM 20 minutes
Procedure: Primary cultures of pooled Human umbilical vein endothelial cells (HUVEC) cells were purchased from Clonetics (Walkersville, Md.) and cultured according to the manufacturer's protocol. About 2500 cells/cm^2 were cultured in Endothelial Cell Growth Medium BulletKit-2 (Clonetics, Walkersville, Md.) on collagen (Gibco, Grand Island, N.Y.) coated RS Lab Tek II slides for 5 days until confluent. Cells were then cultured in low serum (0.5%) medium overnight. Cells were treated with 50 mM cyclocreatine for 3 to 4 hours, or with […] ROCK (Rho Kinase) inhibitor Y-27632 for 30 minutes, as described in Maekawa et al., (1999) Science 285: 895-8, hereby incorporated by reference in its entirety.
Thrombin was delivered at a final concentration of 10 pM for 20 minutes to endothelial cells. F-actin was stained with Alexa 594 phalloidin (Molecular Probes). HUVECs were examined under fluorescence and phase contrast micrography, and cells were scored as either round or flat.

astrocytes [3] = experiment: Intracellular calcium assay (Fluo-3, FLIPR) in astrocytes after thrombin; format: cell-based, rat; settings: thrombin 10 pM, cyclocreatine 50 mM 4 h or U-73122 1 μM 10 min
Procedure: Intracellular Calcium Assay. Astrocytes were treated with or without 50 mM cyclocreatine for 4 h. Cell medium was decanted and replaced with Fluo-3 AM (Molecular Probes) for 1 h. Some wells received 1 μM U-73122 (Biomol, Plymouth Meeting, Pa.) for 10 min before 10 pM thrombin and 10 mM EDTA injection. The relative intracellular calcium levels were monitored at […] for 210 sec in 4-8 identically treated wells by using a Fluorometric Imaging Plate Reader (Molecular Devices).

platelets = experiment: Thrombin-induced platelet aggregation in platelet-rich plasma (Chrono-Log aggregometer); format: cell-based, human; settings: 30 min preincubation, 1 nM thrombin, PRP
Procedure: Blood from healthy volunteers was collected in an anti-coagulant citrate solution according to standard protocols. The whole blood/citrate solution was centrifuged at 200×g for 10 minutes to obtain platelet-rich plasma (PRP). The platelet count, as determined by Coulter Counter, was 2.88×10^8/mL. Aliquots (0.5 mL each) of the PRP were incubated with and without various concentrations of cyclocreatine (0 to 10 mM final concentration) for 30 minutes at room temperature. The aggregation assay was then carried out in the presence of thrombin (10 ul of thrombin was added to each aliquot, to a final concentration of 1 nM) with stirring at 37° C. using a Chrono-Log Whole Blood Aggregometer. (Chronolog Corp., Havertown, Pa.) Absorbance was measured at 500 nm.

[4] = tested on: primary cortical astrocyte cultures; experiment: Astrocyte morphology studies (thrombin-induced shape change, stellate vs flat); format: cell-based, rat; settings: for effect on morphological response of astrocytes to thrombin / fold greater number of astrocytes remaining stellate after thrombin: 10 pM thrombin 2 h; for fold greater number of astrocytes remaining stellate after thrombin: versus thrombin alone
Procedure: Coimmunoprecipitation. Primary cortical astrocyte cultures were prepared from 1- to 2-day-old Sprague-Dawley rats as described in Donovan, et al., (1997) J. Neurosci. 17: 5316-5326. Astrocytes were solubilized and incubated with control antibody (rabbit IgG) or anti-PAR-1 antibody overnight at 4° C. in the presence of protein A-Sepharose. Immunoprecipitation products were either subjected to CKB activity assays or separated by SDS/PAGE and analyzed on immunoblots with anti-CKB antibodies.
(§1) Astrocyte Morphology Studies. Oligonucleotides based on a CKB antisense sequence (GUGUCUGCAACAGCUUAGC-CAUCAG), a control reverse sequence ([…]), and an identical antisense sequence rendered insensitive to RNaseH were purchased from Sequitur (Natick, Mass.) and transformed into primary astrocyte cultures with Lipofectin (GIBCO/BRL) for 1 h. After 18 h, cells were differentiated in 1.5 mM dibutyryl cAMP for 2 h. A total of 10 pM thrombin was added for 2 h for a maximal response, and the morphology of approximately 200 cells was examined under phase-contrast micrography and scored as either stellate or flat. Antisense knockdown of CKB was confirmed by immunoblot analysis. Morphology assays were also performed after a 4-h treatment with 50 mM cyclocreatine.

Ad12HER10 retinoblasts = experiment: Thrombin/PAR-1 morphological response in retinoblasts; format: cell-based, human; settings: Ad12HER10, data not shown
Procedure: Dominant Negative CKB Studies. The dominant negative CKB mutant C283S, described in Lin, et al., (1994) Biochim. Biophys. Acta 1206: 97-104, was cloned into the pIRES-EGFP vector (CLONTECH) and transfected for 6 h with Novafector (VennNova, LCC) into Ad12HER10 retinoblasts seeded into Lab-Tek II slides (Nunc). After 18 h, cells were differentiated with 2 mM dibutyryl cAMP in serum-free medium for 6 h. After addition of thrombin (160 nM) for 2 h, transfected cells (20-30%) were identified by fluorescence micrography, and the cell morphology of approximately 100 transfected cells was examined with phase-contrast illumination and scored blind to treatment as either refractile or flat.

RhoA = RhoA activation and translocation assay; format: cell-based, rat; settings: astrocytes, 50 mM cyclocreatine 4 h
Procedure: RhoA Activation and Translocation Assay. Active RhoA levels were measured in primary rat astrocytes as described in Ren, et al., (1999) EMBO J. 18: 578-585. Astrocytes received a 4-h 50 mM cyclocreatine treatment before the thrombin (10 pM) addition for 10 min. Cell lysates were incubated with GST-Rhotekin binding domain (20-30 μg) for 45 min, washed, and immunoprobed with anti-RhoA antibody. For membrane RhoA, crude membrane fractions were prepared as described in Donovan, et al., (1997) J. Neurosci. 17: 5316-5326. Fifteen micrograms of membrane protein fractions was separated by SDS/PAGE and immunoblotted with anti-RhoA antibody.

astrocytes [5] = experiment: Total cellular ATP levels and cell viability; format: cell-based, rat; settings: data not shown
Procedure: Materials. The protein-protein interaction screen was performed by using the Matchmaker GAL4 two-hybrid system and a rat brain cDNA library (CLONTECH). Rabbit anti-PAR-1 antibody was a gift from M. Runge (University of Texas Medical Branch, Galveston), anti-CKB antibodies were obtained from Chemicon, and anti-RhoA was from Santa Cruz Biotechnology. CKB activity was measured with CK 520 Sigma. ATP levels were measured with the bioluminescent somatic cell assay (Sigma FL-ASC). Thrombin and purified CKB were purchased from Calbiochem, and cyclocreatine was purchased from Sigma. Site-directed mutagenesis was performed with Quick Change (Stratagene). G. Molloy (Delaware University) graciously provided the CKB plasmid, and T. Ma (Baylor College, Houston) provided the dominant negative CKB mutant. Statistical analysis was carried out by using two-way ANOVA.

CKB = CKB immunoblot after antisense knockdown; format: cell-based, rat; settings: astrocytes, 18 h after transfection
Procedure: as §1

CCCCCCCCCCCCCCCCCCOCC(COP(=O)([O-])OCC[N+](C)(C)C)OC (centres unmarked) [ET18-OCH3]
effect on thrombin-induced calcium response (peak fluorescence) [1]: completely abolished

C[C@@H](N)[C@H]1CC[C@H](C(=O)Nc2ccncc2)CC1 [ROCK (Rho Kinase) inhibitor, Y-27632, reference compound]
% of cells round after thrombin ([2]; 10 mM Y-27632 for 30 minutes): 2%
effect on thrombin-induced cell rounding / contraction [2]: completely blocked

COc1ccc2c(c1)CC[C@@H]1[C@@H]2CC[C@]2(C)[C@@H](NCCCCCCN3C(=O)C=CC3=O)CC[C@@H]12 [U-73122, reference compound]
effect on thrombin-induced calcium response (peak fluorescence) [1]: completely abolished
effect on thrombin-induced peak intracellular calcium (astrocytes [3]): inhibited

NC1=NCCN1CC(=O)O [cyclocreatine]
% Aggregation of Platelets (platelets; 1 mM cyclocreatine): 88%
% Aggregation of Platelets (platelets; 5 mM cyclocreatine): 11%
% Aggregation of Platelets (platelets; 10 mM cyclocreatine): 0%
% of cells round after thrombin ([2]; maximum dose of cyclocreatine (50 mM, 3 to 4 hours)): 20%
effect on thrombin-induced cell rounding / contraction [2]: inhibited; also recorded: dose-dependent protective effect; also recorded: protected
effect on thrombin-induced calcium response (peak fluorescence) [1]: almost no effect; also recorded: no significant changes
effect on morphological response of astrocytes to thrombin [4]: dose-dependent decrease
fold greater number of astrocytes remaining stellate after thrombin [4]: ≤ 4 fold
effect on morphological response of astrocytes to thrombin ([4]; listed as Cyclocreatine): protects
effect on thrombin/PAR-1 morphological response in retinoblasts (Ad12HER10 retinoblasts): blocked
RhoA translocation to the membrane after thrombin treatment (RhoA; thrombin 10 pM): almost no translocation
GTP-RhoA after thrombin treatment (GST-rhotekin pull-down) (RhoA; thrombin 10 pM 10 min): significantly reduced
effect on thrombin-induced peak intracellular calcium (astrocytes [3]): only a minor decline
effect on cell viability (astrocytes [5]): no effect
effect on total cellular ATP levels (astrocytes [5]): no effect

C/C=C(/C)C(=O)O[C@H]1C(C)=C2[C@H]([C@@H]1OC(=O)CCCCCCC)[C@@](C)(OC(C)=O)C[C@H](OC(=O)CCC)[C@@]1(O)[C@H]2OC(=O)[C@@]1(C)O [thapsigargin]
effect on thrombin-induced calcium response (peak fluorescence) [1]: completely abolished

CKB antisense ODNs: antisense oligonucleotide GUGUCUGCAACAGCUUAGC-CAUCAG directed toward the 3′ end of the CKB mRNA (Sequitur) (antisense GUGUCUGCAACAGCUUAGCCAUCAG; chemistry not given here)
effect on morphological response of astrocytes to thrombin [4]: no longer responded
fold greater number of astrocytes remaining stellate after thrombin [4]: > 3 fold
effect on astrocyte morphology without thrombin ([4]; treatment alone): without affecting
effect on cell viability (astrocytes [5]): did not affect
effect on total cellular ATP levels (astrocytes [5]): did not affect
CKB expression level (Western blot) (CKB): significantly lower levels

reverse sequence ODN (Rev): control reverse sequence oligonucleotide GACUACCGAUUCGACAACGUCUGUG (chemistry not given here) [reference compound]
effect on morphological response of astrocytes to thrombin [4]: Neither a reverse sequence ODN (Rev) nor the ODN rendered insensitive to RNaseH had any significant effect
CKB expression level (Western blot) (CKB): Neither a reverse sequence ODN (Rev) nor the ODN rendered insensitive to RNaseH had any significant effect
